Legend:
Cannabinoid receptor 1 [1] = molecular target: Cannabinoid receptor 1 (Homo sapiens, UniProt P21554); assay: Displacement of [3H]CP-55940 from human recombinant CB1 receptor expressed in CHO cell membranes incubated for 90 mins by scintillation counting
Cannabinoid receptor 2 [2] = molecular target: T1, Cannabinoid receptor 2 (Homo sapiens, UniProt P34972); assay: Agonist activity at human recombinant CB2 receptor expressed in CHO cell membranes assessed as inhibition of forskolin-induced cAMP accumulation; type: functional, cell-based
T1 sequence (P34972 whole entry): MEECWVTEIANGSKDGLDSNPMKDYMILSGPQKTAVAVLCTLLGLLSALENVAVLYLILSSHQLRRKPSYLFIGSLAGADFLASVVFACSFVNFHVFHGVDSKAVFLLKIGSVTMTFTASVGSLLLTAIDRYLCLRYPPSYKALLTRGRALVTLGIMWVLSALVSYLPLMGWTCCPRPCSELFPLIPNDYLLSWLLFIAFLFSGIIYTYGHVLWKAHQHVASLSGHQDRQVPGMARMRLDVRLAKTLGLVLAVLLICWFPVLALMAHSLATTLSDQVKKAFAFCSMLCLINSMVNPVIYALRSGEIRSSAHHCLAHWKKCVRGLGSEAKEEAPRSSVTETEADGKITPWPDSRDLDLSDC

Cannabinoid receptor 1 [3] = molecular target: Cannabinoid receptor 1 (Rattus norvegicus, UniProt P20272); assay: Displacement of [3H]CP-55940 from CB1 receptor in Sprague-Dawley rat brain by scintillation counting
Cannabinoid receptor 1 (Rattus norvegicus, UniProt P20272), sequence (P20272 whole entry): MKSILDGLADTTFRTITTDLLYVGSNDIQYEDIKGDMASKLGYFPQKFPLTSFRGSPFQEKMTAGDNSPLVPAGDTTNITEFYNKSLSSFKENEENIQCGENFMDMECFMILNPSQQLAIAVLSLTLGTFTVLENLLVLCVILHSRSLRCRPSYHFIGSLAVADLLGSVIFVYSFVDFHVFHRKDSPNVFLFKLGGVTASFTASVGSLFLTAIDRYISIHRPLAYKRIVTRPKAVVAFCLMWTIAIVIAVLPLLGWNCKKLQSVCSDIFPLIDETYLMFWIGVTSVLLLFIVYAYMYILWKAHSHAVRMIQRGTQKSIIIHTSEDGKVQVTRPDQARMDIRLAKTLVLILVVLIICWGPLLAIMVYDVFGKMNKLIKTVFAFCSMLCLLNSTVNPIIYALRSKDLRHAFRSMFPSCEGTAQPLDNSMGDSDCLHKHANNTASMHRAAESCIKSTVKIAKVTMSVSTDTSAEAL

Cannabinoid receptor 2 [4] = molecular target: T2, Cannabinoid receptor 2 (Rattus norvegicus, UniProt Q9QZN9); assay: Displacement of [3H]CP-55940 from CB2 receptor in Sprague-Dawley rat spleen by scintillation counting
T2 sequence (Q9QZN9 whole entry): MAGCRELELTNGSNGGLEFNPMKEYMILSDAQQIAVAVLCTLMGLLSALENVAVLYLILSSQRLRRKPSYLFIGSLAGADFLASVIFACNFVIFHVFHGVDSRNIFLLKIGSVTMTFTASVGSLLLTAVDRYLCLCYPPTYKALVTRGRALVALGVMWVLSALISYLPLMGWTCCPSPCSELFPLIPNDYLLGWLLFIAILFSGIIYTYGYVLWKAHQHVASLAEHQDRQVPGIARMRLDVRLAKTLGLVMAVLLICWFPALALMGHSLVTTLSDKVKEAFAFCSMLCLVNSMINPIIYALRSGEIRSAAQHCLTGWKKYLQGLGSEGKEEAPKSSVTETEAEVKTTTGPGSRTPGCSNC

Cannabinoid receptor 2 [5] = molecular target: T1, Cannabinoid receptor 2; assay: Displacement of [3H]CP-55940 from human recombinant CB2 receptor expressed in CHO cell membranes incubated for 60 mins by scintillation counting
Homo sapiens = species on record: Homo sapiens; assay: Selectivity ratio of Ki for human recombinant CB1 receptor to KI for human recombinant CB2 receptor

Cannabinoid receptor 1 (Homo sapiens, UniProt P21554), sequence (P21554 whole entry): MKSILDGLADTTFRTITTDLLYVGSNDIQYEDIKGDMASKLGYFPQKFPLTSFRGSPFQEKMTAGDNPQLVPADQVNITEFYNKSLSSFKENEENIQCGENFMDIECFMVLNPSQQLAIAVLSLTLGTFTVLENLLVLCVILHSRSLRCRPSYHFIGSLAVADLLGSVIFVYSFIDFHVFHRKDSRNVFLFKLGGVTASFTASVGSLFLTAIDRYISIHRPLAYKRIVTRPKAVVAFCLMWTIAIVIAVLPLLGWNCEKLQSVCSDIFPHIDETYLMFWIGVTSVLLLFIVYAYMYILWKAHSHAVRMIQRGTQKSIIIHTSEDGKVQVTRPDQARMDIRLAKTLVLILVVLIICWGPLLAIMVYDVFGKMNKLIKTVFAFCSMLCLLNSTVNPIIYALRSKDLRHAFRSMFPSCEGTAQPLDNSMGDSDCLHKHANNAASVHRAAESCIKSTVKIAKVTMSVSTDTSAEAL

SMILES	Ki (Cannabinoid receptor 1 [1])	IC50 (Cannabinoid receptor 2 [2])	Ki (Cannabinoid receptor 1 [3])	Ki (Cannabinoid receptor 2 [4])	Ki (Cannabinoid receptor 2 [5])	Ratio Ki (Homo sapiens)
C[C@@H]1COc2cccc3c(=O)c(C(=O)NC4CCCCC4)cn1c23	2870 nM	90 nM	3560 nM	30 nM	24 nM	119
C[C@H]1COc2cccc3c(=O)c(C(=O)NC4CCCCC4)cn1c23	4650 nM	724 nM	5240 nM	250 nM	188 nM	25
C[C@@H]1COc2cccc3c(=O)c(C(=O)NC45CC6CC(CC(C6)C4)C5)cn1c23	> 10000 nM	153 nM	> 10000 nM	52 nM	47 nM	> 212
C[C@H]1COc2cccc3c(=O)c(C(=O)NC45CC6CC(CC(C6)C4)C5)cn1c23	> 10000 nM	250 nM	> 10000 nM	86 nM	78 nM	> 128
CC[C@@H]1COc2cccc3c(=O)c(C(=O)NC4CCCCCC4)cn1c23	105 nM	17.2 nM	126 nM	6.03 nM	4.12 nM	25
CC[C@H]1COc2cccc3c(=O)c(C(=O)NC4CCCCCC4)cn1c23	843 nM	682 nM	913 nM	203 nM	187 nM	4.5
CC[C@@H]1COc2cccc3c(=O)c(C(=O)NC45CC6CC(CC(C6)C4)C5)cn1c23	197 nM	18.1 nM	242 nM	6.17 nM	4.93 nM	40
CC[C@H]1COc2cccc3c(=O)c(C(=O)NC45CC6CC(CC(C6)C4)C5)cn1c23	578 nM	413 nM	653 nM	97 nM	88 nM	7
CC(C)[C@@H]1COc2cccc3c(=O)c(C(=O)NC45CC6CC(CC(C6)C4)C5)cn1c23	88 nM	9.84 nM	95 nM	1.75 nM	1.24 nM	71
CC(C)[C@H]1COc2cccc3c(=O)c(C(=O)NC45CC6CC(CC(C6)C4)C5)cn1c23	858 nM	55 nM	864 nM	19.3 nM	16.2 nM	53
CC(C)C[C@@H]1COc2cccc3c(=O)c(C(=O)NC45CC6CC(CC(C6)C4)C5)cn1c23	> 10000 nM	36 nM	> 10000 nM	10.2 nM	9.24 nM	> 1080
O=C(NC12CC3CC(CC(C3)C1)C2)c1cn2c3c(cccc3c1=O)OC[C@H]2Cc1ccccc1	105 nM	17.5 nM	121 nM	4.65 nM	3.72 nM	28
CC1(C)COc2cccc3c(=O)c(C(=O)NC45CC6CC(CC(C6)C4)C5)cn1c23	221 nM	242 nM	276 nM	68 nM	56 nM	4
CCC1COc2c(N3CCCC3)ccc3c(=O)c(C(=O)NC45CC6CC(CC(C6)C4)C5)cn1c23 (racemic)	> 10000 nM	29 nM	> 10000 nM	10.5 nM	8.12 nM	> 1230
CCC1COc2c(N3CCN(C)CC3)ccc3c(=O)c(C(=O)NC45CC6CC(CC(C6)C4)C5)cn1c23 (racemic)	> 10000 nM	196 nM	> 10000 nM	61 nM	42 nM	> 238
CCCC1COc2cccc3c(=O)c(C(=O)NC4CCCCC4)cn1c23 (racemic)	10.2 nM	1.53 nM	13.4 nM	1.84 nM	0.32 nM	32
CCCC1COc2cccc3c(=O)c(C(=O)NC45CC6CC(CC(C6)C4)C5)cn1c23 (racemic)	215 nM	15.3 nM	240 nM	2.73 nM	2.34 nM	92
CCCC1COc2cccc3c(=O)c(C(=O)NC45CC6CC(C)(CC(C)(C6)C4)C5)cn1c23 (racemic)	200 nM	20 nM	476 nM	10.7 nM	3.62 nM	55
CCCC1COc2ccc(C)c3c(=O)c(C(=O)NC4CCCCC4)cn1c23 (racemic)	756 nM	122 nM	874 nM	43 nM	38 nM	20
CCCC1COc2ccc(C)c3c(=O)c(C(=O)NC45CC6CC(CC(C6)C4)C5)cn1c23 (racemic)	450 nM	42 nM	476 nM	13.2 nM	10.4 nM	43
O=C(NC1CCCCC1)c1cn2c3c(cccc3c1=O)OCC2C1CC1 (racemic)	102 nM	67 nM	123 nM	18.2 nM	15.3 nM	7
O=C(NC1CCCCCC1)c1cn2c3c(cccc3c1=O)OCC2C1CC1 (racemic)	91 nM	12.4 nM	101 nM	3.52 nM	3.12 nM	29
O=C(NC12CC3CC(CC(C3)C1)C2)c1cn2c3c(cccc3c1=O)OCC2C1CC1 (racemic)	389 nM	32 nM	482 nM	10.3 nM	8.92 nM	44
CC(C)C1COc2cccc3c(=O)c(C(=O)NC45CC6CC(CC(C6)C4)C5)cn1c23 (racemic)	323 nM	12.4 nM	366 nM	4.22 nM	3.74 nM	86
CCC1COc2c(F)ccc3c(=O)c(C(=O)NC45CC6CC(CC(C6)C4)C5)cn1c23 (racemic)	389 nM	27 nM	452 nM	9.51 nM	7.34 nM	53
CCC1COc2c(F)c(F)cc3c(=O)c(C(=O)NC45CC6CC(CC(C6)C4)C5)cn1c23 (racemic)	1750 nM	145 nM	1820 nM	37 nM	33 nM	53
CCC1COc2c(OC)ccc3c(=O)c(C(=O)NC45CC6CC(CC(C6)C4)C5)cn1c23 (racemic)	521 nM	24 nM	589 nM	9.12 nM	6.78 nM	77
O=C(NC12CC3CC(CC(C3)C1)C2)c1cn2c3c(cccc3c1=O)OC(c1ccccc1)C2c1ccccc1 (racemic)	> 10000 nM		> 10000 nM	> 10000 nM	> 10000 nM	
Cc1cc2c3c(c1)c(=O)c(C(=O)NC14CC5CC(CC(C5)C1)C4)cn3C(c1ccccc1)CO2 (racemic)		472 nM				

From ChEMBL document CHEMBL2163236, “7-Oxo-[1,4]oxazino[2,3,4-ij]quinoline-6-carboxamides as selective CB(2) cannabinoid receptor ligands: structural investigations around a novel class of full agonists” (J Med Chem, 2012)
